Reference: article PMC9982066, “Inhibition of Ehrlichia chaffeensis infection by cell-permeable macrocyclic peptides that bind type IV secretion effector Etf-1” (PNAS Nexus, 2023)
Read-outs that look alike come from different tables or passages of the source. Starred links: 1 amine or outer side, 2 acyl side, 3 side chain; linkers in the order of their positions; H or OH if unused. Positions of bridges follow the written chain, without caps; N, C: chain ends. Non-standard residues stand in square brackets, D forms with d. Residues, ends and D or L forms follow the SMILES beside them. Trimesoyl = O=C(c1cc(C(=O)[*:2])cc(C(=O)[*:3])c1)[*:1]; Phe(4-Cl) = N[C@@H](Cc1ccc(Cl)cc1)C(=O)O; d2Nal = N[C@H](Cc1ccc2ccccc2c1)C(=O)O; Phg = N[C@H](C(=O)O)c1ccccc1; d(β3hA) = C[C@@H](N)CC(=O)O; Dap = NC[C@H](N)C(=O)O

Tests used:
Etf-1 = Etf-1 (Ehrlichia chaffeensis, UniProt Q2GG12); assay: biochemical; assay type: binding; settings: for competition for Etf-1 binding: unlabeled competitor peptides vs FAM-B7-133-8
Method: Fig. 2. Determination of binding affinity of Etf-1-binding peptides by FP assay. […] FAM-labeled peptide (50 nM) was incubated with serially diluted Etf-1 (starting from 25–30 μM in PBS, pH 7.4, supplemented with 5 mM DTT and 0.01% Triton X-100) for 1 h at RT. FP values were measured on a Tecan Infinite M1000 Pro plate reader. Titration curves (n ≥ 3) were fitted using GraphPad Prism and analyzed with TraceDrawer to calculate dissociation constants (KD). […] Data were analyzed using GraphPad Prism and fitted to a four-parameter variable slope equation to determine IC50 values.
Serial dilutions of competitor peptide (0-20 μM) were prepared from DMSO stock solutions into PBS containing 0.01% Triton-X100 and 2 mM TCEP and added to aliquots of the equilibrated Etf-1/probe solution. After incubation for 1 h in the dark and with gentle mixing, 20 μL of each sample was transferred into 384-well black-on-black microplates and FP was measured using a TECAN Infinite M1000 plate reader. Data were analyzed using GraphPad PRISM ver. 8.0 and fit to a four-parameter variable slope equation to determine IC50 values. IC50 values reported are the mean ± SD of n = 2–4 independent experiments.

[1] = LDH release assay (plasma membrane damage); assay type: cell-based; settings: Fig. S2
Method: LDH release assay (Promega) was performed to assess the level of plasma membrane damage in a cell population by these compounds. […] Control wells contained 10 μL of lysis buffer, cell-free complete growth media, or positive LDH control. Following incubation at 37°C and 5% CO2 for 45 to 75 min, the culture was centrifuged and 50 μL of the growth medium was withdrawn from each well, transferred to a clear 96-well plate, mixed with 50 μL of LDH substrate mixture, and incubated at RT for 30 min with gentle mixing. Finally, 50 μL of 1 N HCl was added to each well, and the absorbances at 490 and 680 nm were immediately measured on a Tecan Infinite M1000 plate reader. Relative membrane leakage was calculated and plotted using GraphPad Prism v8.0.

[2] = serum stability assay (UPLC); assay type: in vitro ADME; settings: 25% (v/v) in DPBS; 25% human serum, 37°C, after 22 h; read-out: degradation
Method: In comparison, the linear peptide Tat (cell-permeable peptide of HIV) was completely degraded within the first 120 min of incubation (Fig. 4B).
Human serum was diluted to 25% (v/v) in sterile DPBS and equilibrated at 37°C for 15 min. Peptides were added to the diluted serum to a final concentration of 20 μM and incubated at 37°C with gentle mixing. At designated time points, 30 μL aliquots were withdrawn and mixed with 30 μL of 15% trichloroacetic acid in MeOH (w/v) and 30 μL of MeCN and stored at 4°C overnight to completely precipitate the serum proteins. Next, each aliquot was centrifuged (15,000g, 5 min, 4°C) and 14 μL of the supernatant was injected in an UPLC equipped with an analytical Waters Acquity UPLC BEH C18 column (1.7 μm, 2.1 mm I.D., 100 mm length) and an inline UV-Vis detector and a single quadrupole mass detector. The column was eluted with a linear gradient of 20–50% MeCN in ddH2O containing 0.1% TFA. A UV/Vis detector at 214 nm and the mass spec quantifying the ion counts corresponding to the [M + 3H]^3+ ion of the analytes were used to analyze the samples. The area under the peak of interest was obtained by integration, normalized to that of the peptide at t = 0, and plotted as a function of the incubation time to determine the serum half-life of the peptide.

E. chaffeensis [3] = assay: E. chaffeensis infection of THP-1 cells, qPCR of 16S rRNA gene normalized to human actin; assay type: cell-based, Ehrlichia chaffeensis; settings: for inhibition of E. chaffeensis infection: 10 μM, 2 days, vs DMSO control
E. chaffeensis [4] = assay: morphological examination of E. chaffeensis infection of THP-1 cells by Diff-Quik staining; settings: for E. chaffeensis infection (numbers and sizes of morulae): THP-1 cells, Fig. S4 (with Figs. 5, S3)
BECN1 binding to Etf-1 = assay: streptavidin magnetic beads pull-down of BECN1 with biotin-Etf-1, Western blot; assay type: biochemical; settings: 10 µM peptide
Method: Fig. 8.
Streptavidin magnetic beads (15 µL, Pierce, Rockford, IL, USA) were washed with 1 mL of Bind/Wash buffer (25 mM Tris, pH 7.4; 250 mM NaCl, 0.1% Tween 20), and incubated with 0.15 µg ([…] final concentration) of biotinylated full-length Etf-1 protein in bind/wash buffer at 4°C overnight with end-to-end rotation. Beads were washed three times with Bind/Wash buffer, then incubated with Etf-1-binding macrocyclic peptides (10 µM) or DMSO control in Bind/Wash buffer at room temperature for 2 h. […] Beads were washed three times, and proteins were eluted from the beads with 50 µL of 2× SDS-sample buffer. […] Reacting bands were visualized with enhanced chemiluminescence by incubating the membrane with LumiGLO chemiluminescent reagent (Thermo Fisher Scientific). Images were captured by Amersham Imager 680 (GE Healthcare) and densitometry analysis was performed using ImagQuaNT (GE Healthcare). In each specimen, band intensities were normalized against those of actin as the loading control, and the ratios of the treatment group to the control group were calculated with the value in the control groups arbitrarily set as 1.0.

THP-1 cells = assay: CellTiter-Glo luminescent cell viability assay; settings: 20 μM, 2-day treatment
From the text: THP-1 (human promyelocytic leukemia) cells are widely used as E. chaffeensis infection studies of human monocytes in vitro, since initial characterization of infection ([31]).
Fig. 4. Cytotoxicity and proteolytic stability of Etf-1-binding peptides. (A) Effect of Etf-1-binding peptides on the viability of THP-1 cells as determined by CellTiter-Glo luminescent assay. Relative luminescence was plotted as function of the peptide concentration, with the cell viability of DMSO control group set as 100%. (B) Plot of the amount of intact peptide remaining as a function of the incubation time in 25% human serum. All values are normalized to that of peptide at time 0 (100%).
Cytotoxicity of Etf-1-binding peptides was examined by CellTiter-Glo luminescent cell viability assay (Promega, Madison, WI, USA). THP-1 cells were seeded in a transparent 96-well plate at a density of 5 × 10^3 cells/well (100 μL in each well) in RPMI-1640 containing 10% FBS and 1% antibiotics and cultured overnight. Etf-1-binding peptides were serially diluted in DPBS from a DMSO stock and added to the cells with the final concentration of 0–25 μM and a constant final concentration of 0.5% DMSO (v/v). After incubation at 37°C with 5% CO2 for 46 h, the plate was removed and pre-equilibrated to RT before the addition of 100 μL of the CellTiter-Glo 2.0 reagent to each well. The plate was incubated for 15 min on a rotary shaker in the dark, and the luminescence was detected (1-s integration time) on a Tecan Infinite M1000 Pro microplate reader. Relative luminescence was plotted as function of the peptide concentration, with the cell viability of DMSO control group set as 100%.

Etf-1, sequence (Q2GG12 entry or part of it): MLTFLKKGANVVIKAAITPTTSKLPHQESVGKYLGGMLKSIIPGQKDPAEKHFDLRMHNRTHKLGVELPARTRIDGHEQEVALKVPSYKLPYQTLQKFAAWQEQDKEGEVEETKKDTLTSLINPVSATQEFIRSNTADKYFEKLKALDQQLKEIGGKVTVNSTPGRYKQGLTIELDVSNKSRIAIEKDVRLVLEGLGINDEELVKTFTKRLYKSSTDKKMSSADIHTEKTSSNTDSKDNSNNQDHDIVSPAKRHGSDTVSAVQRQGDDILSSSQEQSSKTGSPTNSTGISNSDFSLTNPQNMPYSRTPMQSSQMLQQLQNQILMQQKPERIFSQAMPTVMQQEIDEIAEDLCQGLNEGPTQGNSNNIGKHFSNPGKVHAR

SMILES: CC(C)C[C@H]1NC(=O)[C@H]2CCCN2C(=O)C[C@@H](C)NC(=O)[C@H](CCC(N)=O)NC(=O)[C@@H](Cc2ccc3ccccc3c2)NC(=O)[C@H](Cc2ccc(O)cc2)NC(=O)c2cc3cc(c2)C(=O)NC[C@H](NC1=O)C(=O)N[C@@H](Cc1ccc(Cl)cc1)C(=O)N[C@H](Cc1ccc2ccccc2c1)C(=O)N[C@H](CCCNC(=N)N)C(=O)N[C@@H](CCCNC(=N)N)C(=O)N[C@H](CCCNC(=N)N)C(=O)N[C@@H](CCCNC(=N)N)C(=O)N[C@H](C(N)=O)CNC3=O [Peptide B7-133-8, TMA-Tyr-nal-Gln-homoAla-pro-leu-Dap-4-ClPhe-nal-arg-Arg-arg-Arg-Dap] (Y[d2Nal]Q[d(β3hA)][dP][dL][Dap][Phe(4-Cl)][d2Nal][dR]R[dR]R[Dap]-NH2; linker N-7-14 via Trimesoyl)
- IC50 (Etf-1): 110 ± 20 nM
- competition for Etf-1 binding (Etf-1): Competition for Etf-1 binding was observed
- release of lactate dehydrogenase (LDH) [1]: significant release of lactate dehydrogenase
- metabolised at 22 h, 20 µM [2]: < 20%
- inhibition of E. chaffeensis infection (E. chaffeensis [3]): significantly inhibited
- dose dependence of inhibition of E. chaffeensis infection (E. chaffeensis [3]; 1, 5, and 10 μM): dose-dependent manner
- inhibition of E. chaffeensis infection compared with peptide B7 (or B7-16) (E. chaffeensis [3]; THP-1 cells): significantly more potent inhibition
- cytotoxicity (cell lysis in treated groups) (E. chaffeensis [4]): certain degrees of cytotoxicity
- E. chaffeensis infection (numbers and sizes of morulae) (E. chaffeensis [4]): significantly inhibited
- disruption of BECN1 binding to Etf-1 (BECN1 binding to Etf-1; compared to DMSO control): disrupted BECN1 binding to Etf-1
- BECN1/Etf-1 Ratio (BECN1 binding to Etf-1; band intensities, DMSO control set as 1, Fig. 8B): 0.19

SMILES: CC(C)C[C@H]1NC(=O)[C@H](c2ccccc2)NC(=O)[C@H](CO)NC(=O)[C@@H](Cc2ccc3ccccc3c2)NC(=O)[C@@H](CC(N)=O)NC(=O)[C@H](Cc2ccc(O)cc2)NC(=O)c2cc3cc(c2)C(=O)NC[C@H](NC(=O)[C@@H](CC(C)C)NC1=O)C(=O)N[C@@H](Cc1ccc(Cl)cc1)C(=O)N[C@H](Cc1ccc2ccccc2c1)C(=O)N[C@H](CCCNC(=N)N)C(=O)N[C@@H](CCCNC(=N)N)C(=O)N[C@H](CCCNC(=N)N)C(=O)N[C@@H](CCCNC(=N)N)C(=O)N[C@H](C(N)=O)CNC3=O [Peptide B7-131-1, TMA-Tyr-asn-nal-Ser-Phg-leu-leu-Dap-4-ClPhe-nal-arg-Arg-arg-Arg-Dap] (Y[dN][d2Nal]S[Phg][dL][dL][Dap][Phe(4-Cl)][d2Nal][dR]R[dR]R[Dap]-NH2; linker N-8-15 via Trimesoyl)
- competition for Etf-1 binding (Etf-1): Competition for Etf-1 binding was observed
- cell viability (THP-1 cells): greater loss of cell viability
- release of lactate dehydrogenase (LDH) [1]: significant release of lactate dehydrogenase
- metabolised at 22 h, 20 µM [2]: < 20%
- inhibition of E. chaffeensis infection (E. chaffeensis [3]): significantly inhibited
- E. chaffeensis infection (numbers and sizes of morulae) (E. chaffeensis [4]): significantly inhibited
- cytotoxicity (cell lysis in treated groups) (E. chaffeensis [4]; THP-1 host cells): certain degrees of cytotoxicity
